Results reported in paper PMC10135569, “Does Enhanced Structural Maturity of hiPSC-Cardiomyocytes Better for the Detection of Drug-Induced Cardiotoxicity?” (Biomolecules, 2023).

What was measured:
[1] = tested on: hiPSC-CMs (iCell2 Cardiomyocytes) 2D monolayers; assay: Membrane potential (action potential) recordings with FluoVolt voltage-sensitive dye on the CellOPTIQ platform; assay type: cell-based, human; conditions: for activity at 0.1 µM / activity at 0.3 µM / activity at 3 µM / activity at 1 µM: Homo sapiens, Cardiomyocyte, 0.5 h, 30 min, delta over DMSO 0.1%
Outline: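 iCell2 hiPSC-CM monolayers (50,000 cells/well on fibronectin or Matrix Plus, days 5–6) were loaded with FluoVolt (1:1000, 20 min, 37 °C) and imaged at 37 °C with 470 nm excitation and 510–560 nm emission sampled at 10 kHz. Spontaneous action potentials were recorded for 10 s at baseline and 30 min after drug, with one of four concentrations per well (n = 8).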

[2] = tested on: hiPSC-CMs (iCell2 Cardiomyocytes) 2D monolayers; assay: Contractility measurements using video imaging (ContractilityTool / MUSCLEMOTION); assay type: cell-based, human; conditions: for activity at 0.1 µM / activity at 0.3 µM / activity at 1 µM / activity at 3 µM: Homo sapiens, Cardiomyocyte, 0.5 h, 30 min, delta over DMSO 0.1%
Outline: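 Monolayers on fibronectin or Matrix Plus coating, tested on days 5–6 in serum-free medium. Four concentrations, one per well, n = 8, with vehicle control.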

[3] = listed in Supplementary Table S1; no reference given; cited from earlier work
[4] = FM monolayer, read-out: Trise (%DD)
[5] = MM monolayer, read-out: APD30 (%DD)
[6] = MM monolayer, read-out: APD90 (%DD)
[7] = MM monolayer, read-out: CL (%DD)
[8] = MM monolayer, read-out: Trise (%DD)
[9] = read-out: APD30 (%DD), FM monolayer
[10] = read-out: APD90 (%DD), FM monolayer
[11] = read-out: CL (%DD), FM monolayer
[12] = read-out: Trise (%DD), FM monolayer
[13] = FM monolayer, read-out: CtAmp (%DD)
[14] = FM monolayer, read-out: CtD50 (%DD)
[15] = MM monolayer, read-out: CtAmp (%DD)
[16] = MM monolayer, read-out: CtD50 (%DD)

In the case of `C[C@H]1O[C@@H](O[C@H]2[C@@H](O)C[C@H](O[C@H]3[C@@H](O)C[C@H](O[C@H]4CC[C@@]5(C)[C@H](CC[C@@H]6[C@@H]5C[C@@H](O)[C@]5(C)[C@@H](C7=CC(=O)OC7)CC[C@]65O)C4)O[C@@H]3C)O[C@@H]2C)C[C@H](O)[C@@H]1O` [Digoxin], the activity at 0.1 µM [1, 4] is reported as 100 ± 21.3%, the activity at 0.1 µM [1, 5] is reported as 91 ± 1.2% and the activity at 0.1 µM [1, 6] is reported as 101 ± 1.3%. For the same compound, the activity at 0.1 µM [1, 7] was 102 ± 0.4%, the activity at 0.1 µM [1, 8] was 127 ± 10.8% and the activity at 0.3 µM [1, 5] was 68 ± 2.5%. The activity at 0.3 µM [1, 6] was 89 ± 1%, the activity at 0.3 µM [1, 7] was 100 ± 0.8% and the activity at 0.3 µM [1, 8] was 161 ± 38.2%. For the same compound, the activity at 0.1 µM [1, 9] was 84 ± 1.8%, the activity at 0.3 µM [1, 9] was 65 ± 2.8% and the activity at 0.1 µM [1, 10] was 95 ± 0.6%. For the same compound, the activity at 0.3 µM [1, 10] was 88 ± 2.1%, the activity at 0.1 µM [1, 11] was 98 ± 0.7% and the activity at 0.3 µM [1, 11] was 98 ± 0.9%. For the same compound, the activity at 0.3 µM [1, 12] was 74 ± 9.2%, the “effect on APD (in words)” value ([1]; both groups) was “decreased” and the “electrical activity of the monolayers at higher concentrations” value ([1]; higher concentrations, FM and MM) was “electrical quiescence”. For the same compound, the activity at 0.1 µM [2, 13] was 88 ± 6.1%, the activity at 0.1 µM [2, 14] was 90 ± 1.3% and the activity at 0.3 µM [2, 13] was 18 ± 11.1%. For the same compound, the activity at 0.3 µM [2, 14] was 51 ± 15.9%, the activity at 0.1 µM [2, 15] was 127 ± 26.2% and the activity at 0.1 µM [2, 16] was 97 ± 2%. The activity at 0.3 µM [2, 15] was 12 ± 3.3%, the activity at 0.3 µM [2, 16] was 43 ± 1.8% and the activity at 1 µM [2, 15] was 13 ± 5.3%. For the same compound, the activity at 1 µM [2, 16] was 40 ± 3.6%, the activity at 3 µM [2, 15] was 7 ± 1.9% and the activity at 3 µM [2, 16] was 43 ± 3.4%. The “increasing the amplitude of contraction (positive inotropy)” value ([2]; both experimental groups) was “ineffective” and the “Free Cmax” value [3] was 2 nM.
Compound `O=C1CCCN1CC#CCN1CCCC1` [Oxotremorine] has an activity at 3 µM [1, 4] of 132 ± 11.2%, an activity at 0.1 µM [1, 5] of 104 ± 1.7% and an activity at 0.1 µM [1, 6] of 104 ± 1%. The activity at 0.1 µM [1, 7] was 111 ± 2.8%, the activity at 0.1 µM [1, 8] was 124 ± 18.7% and the activity at 0.3 µM [1, 5] was 110 ± 3.4%. The activity at 0.3 µM [1, 6] was 108 ± 1.1%, the activity at 0.3 µM [1, 7] was 115 ± 3.3% and the activity at 0.3 µM [1, 8] was 144 ± 26.3%. For the same compound, the activity at 1 µM [1, 5] was 110 ± 2.8%, the activity at 1 µM [1, 6] was 114 ± 1.1% and the activity at 1 µM [1, 7] was 120 ± 1.4%. It also gave an activity at 1 µM [1, 8] of 117 ± 17%, an activity at 3 µM [1, 5] of 115 ± 3.8% and an activity at 3 µM [1, 6] of 113 ± 1.2%. For the same compound, the activity at 3 µM [1, 7] was 123 ± 1.1%, the activity at 3 µM [1, 8] was 158 ± 32% and the activity at 0.1 µM [1, 9] was 106 ± 2.3%. For the same compound, the activity at 0.3 µM [1, 9] was 111 ± 3.3%, the activity at 1 µM [1, 9] was 110 ± 4.4% and the activity at 3 µM [1, 9] was 107 ± 3.4%. It also gave an activity at 0.1 µM [1, 10] of 103 ± 1.3%, an activity at 0.3 µM [1, 10] of 105 ± 2.8% and an activity at 1 µM [1, 10] of 111 ± 1.7%. It also gave an activity at 3 µM [1, 10] of 101 ± 2.8%, an activity at 0.1 µM [1, 11] of 117 ± 1.3% and an activity at 0.3 µM [1, 11] of 122 ± 1.8%. The activity at 1 µM [1, 11] was 121 ± 2.9%, the activity at 3 µM [1, 11] was 111 ± 3.6% and the activity at 0.1 µM [1, 12] was 155 ± 41.3%. The activity at 0.3 µM [1, 12] was 145 ± 24.3%, the activity at 1 µM [1, 12] was 117 ± 13.3% and the “effect on beating rate / spontaneous rate (in words)” value ([1]; both FM and MM, concentration not given) was “decrease”. For the same compound, the “changes in the APD” value ([1]; both groups (FM and MM)) was under 10%, the activity at 0.1 µM [2, 13] was 140 ± 19.7% and the activity at 0.1 µM [2, 14] was 108 ± 1.9%. For the same compound, the activity at 0.3 µM [2, 13] was 105 ± 16.5%, the activity at 0.3 µM [2, 14] was 112 ± 2.5% and the activity at 1 µM [2, 13] was 117 ± 14.5%. The activity at 1 µM [2, 14] was 116 ± 2.8%, the activity at 3 µM [2, 13] was 166 ± 17.6% and the activity at 3 µM [2, 14] was 110 ± 1.6%. For the same compound, the activity at 0.1 µM [2, 15] was 106 ± 11.7%, the activity at 0.1 µM [2, 16] was 116 ± 2.1% and the activity at 0.3 µM [2, 15] was 97 ± 12.9%. For the same compound, the activity at 0.3 µM [2, 16] was 117 ± 1.1%, the activity at 1 µM [2, 15] was 105 ± 10.2% and the activity at 1 µM [2, 16] was 118 ± 1.6%. For the same compound, the activity at 3 µM [2, 15] was 103 ± 7.4% and the activity at 3 µM [2, 16] was 120 ± 2.3%.
